Reference: patent US20240376097A1, “BCL-2 Inhibitor” (BeiGene Ltd., priority 2020, published 2024)
Like-named read-outs stand apart in the source and are kept apart here.

Experiments:
[1] = tested on: recombinant human Bcl-2-G101V protein; experiment: Bcl-2-G101V TR-FRET Assay; assay type: binding; details: ratio of biochemical IC50 Bcl-2 G101V / Bcl-2 WT
How it was run: (§1)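 Measures how compounds block Bcl-2-G101V engaging its ligand, by TR-FRET with 337 nm excitation and a 490/520 nm emission ratio; dose-response data give IC50 via a four-parameter logistic model.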

[2] = tested on: RS4;11 (BCL-2 dependent acute lymphoblastic leukemia cell line); experiment: RS4;11 Cell Proliferation Assay; assay type: cell-based; details: read-out: Cellular proliferation assay (IC50, nM) RS4
Experimental: Biological Example: RS4;11 Cell Proliferation Assay
(§2) The BCL-2 dependent acute lymphoblastic leukemia (ALL) cell line, RS4;11, was used to study the cellular potency of BCL-2 inhibitors. The cells (ATCC, CRL-1873) were cultured in RPMI-1640 complete medium (RPMI-1640 medium, HEPES (Gibco, 22400-105) supplemented with 10% fetal bovine serum (FBS) (Gibco, 10099-1441), 100 unit/ml penicillin and 100 μg/ml streptomycin (Gibco, 15140122)) and maintained in a humidified chamber at 37° C. containing 5% CO2. Each compound was serially diluted with 1 μM as the maximum concentration. To test the apoptotic effect of the compounds, the cells were seeded at 50,000 in 180 μl per well in 96-well plates and treated with 10-point dilution series of each compound for 48 hrs at 37° C. Cell viability was assessed after the treatment using CellTiter-GLO luminescent assay (Promega) according to the manufacturer's recommendations. Briefly, 30 μl of CellTiter-GLO reagent was added into 200 μl of cell culture. Mixture was agitated on an orbital shaker for 5 min to ensure cell lysis followed by 7 min incubation at room temperature to allow development and stabilization of luminescent signals, which corresponded to the quantity of ATP and thus the quantity of metabolically active cells. Luminescent signals were measured using PHERAstar FS reader (BMG). Mean IC50 values were determined with GraphPad Prism software.

[3] = tested on: BCL-2 G101V knock-in cell line H96 (derive from RS4;11); experiment: Bcl 2-G101V Knock-In RS4;11 Cell Proliferation Assay; assay type: cell-based; details: RS4;11 Bcl-2 G101V knock-in clone H96, 48 hrs, CellTiter-GLO, read-out: Cellular proliferation assay (IC50, nM) RS4
Experimental: Biological Example: Bcl 2-G101V Knock-In RS4;11 Cell Proliferation Assay
(1) RS4;11 H96 Bcl 2-G101V Knock-In Cell Line Generation
Briefly, RS4;11 BCL2-G101V knock-in cell pool was generated using Crisper/Cas9 gene editing system and the BCL2-G101V knock-in single clone H96 was picked from the knock-in cell pool and validated by WES (whole exome-sequencing) and RNA-seq.
The BCL-2 dependent acute lymphoblastic leukemia (ALL) cell line, RS4;11(ATCC, CRL-1873), was cultured in RPMI-1640 complete medium (RPMI-1640 medium, HEPES (Gibco, 22400-105) supplemented with 10% fetal bovine serum (FBS) (Gibco, 10099-1441), 100 unit/ml penicillin and 100 μg/ml streptomycin (Gibco, 15140122)) and maintained in a humidified chamber at 37° C. containing 5% CO2.
To obtain BCL2-G101V knock-in cell pool, RS4;11 was co-transfected with the Cas9-gRNA which also expressed GFP label, and the Donor gene which contained the BCL2-G101V mutant sequence. After 48 hrs of electroporation, the GFP positive cells were collected through FACSAriaIII cell sorting system. Cell pool was recovered for 3 days and then cultured under 2 nM ABT-199 stress for 4 weeks. […] Then cells were plated in 96 well U-plate with 1 cell/well for 10000 wells for single clone selection. After 3-5 weeks growing, clones were successively screened by PCR sequencing. And three BCL2-G101V knock-in clones: H96, H142 and H233, have been picked out.
Three clones were validated by genome DNA and cDNA(mRNA) PCR sequencing, and BCL-2, BCL-xL and MCL-1 expression using Western Blot. The H96 clone was also validated by WES (whole exome-sequencing) and RNA-seq.
(2) Bcl 2-G101V Knock-In RS4;11 Cell Proliferation Assay
as §2, with “G101V knock-in” for “dependent acute lymphoblastic leukemia (ALL)”, “line H96 (derive from RS4;11) were” for “line, RS4;11, was”, “cells” for “cells (ATCC, CRL-1873)”, “μM or 10 μM” for “μM”, “90” for “180”, “100” for “200”

[4] = biological target: recombinant human Bcl-2 D103Y protein (Homo sapiens (Human), UniProt P10415, D103Y); experiment: Bcl-2-D103Y Biochemical Assay (TR-FRET); assay type: binding
How it was run: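 Compounds titrated against the Bcl-2 D103Y–ligand interaction; inhibition derived from the TR-FRET emission ratio 490 nm/520 nm after 337 nm excitation. Four-parameter logistic fitting gave IC50.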

[5] = biological target: Recombinant human Bcl-2 protein (Homo sapiens (Human), UniProt P10415); experiment: Bcl-2 TR-FRET Assay; assay type: binding
How it was run: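 Displacement of FITC-labelled Bak peptide (0.5 nM) from 0.05 nM human Bcl-2, detected by TR-FRET with Tb-cryptate anti-6His antibody after 1 h at room temperature. Compounds, 10-point series, preincubated 0.5 h with protein in 20 mM potassium phosphate pH 7.5, 50 mM NaCl. IC50s fitted by four-parameter logistic.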

[6] = biological target: recombinant human Bcl-2-G101V protein (Homo sapiens (Human), UniProt P10415, G101V); experiment: Bcl-2-G101V TR-FRET Assay; assay type: binding; details: Bcl-2 G101V mutant, TR-FRET; read-out: Biochemical assay (IC50, nM) Bcl-2 G101V
How it was run: as §1

[7] = Bcl-2 wild type, TR-FRET, read-out: Biochemical assay (IC50, nM) Bcl-2 WT
[8] = Homo sapiens, RS4-11, RS4;11 cells

Molecule | Ratio of Bcl-2 G101V/WT [1] | IC50 ([2]; RS4;11 cells) [nM] | IC50 [3] [nM] | Ratio of Bcl-2 D103Y/Bcl-2 WT ([4]; ratio of IC50) | IC50 [5, 7] [nM] | IC50 [6] [nM] | IC50 [2, 8] [nM] | IC50 ([3]; Homo sapiens) [nM] | IC50 ([5]; wild type Bcl-2, unit inferred, read-out: Bcl-2 WT) [nM] | IC50 ([4]; TR-FRET, FITC labeled Bak peptide) [nM]
2-((1H-pyrrolo[2,3-b]pyridin-5-yl)oxy)-N-((4-((((1r,4r)-4-bydroxy-4-methylcyclohexyl)methyl)amino)-3-nitrophenyl)sulfonyl)-4-(2-((R or S)-2-(2-isopropylphenyl)-4-(2-methoxyethyl)piperazin-1-yl)-7-azaspiro[3.5]nonan-7-yl)benzamide [Example 13b] | 22.1 | 0.32 | 2.81 | 12 | – | – | – | – | – | –
CC(C)c1ccccc1[C@H]1CN(C(C)C)CCN1C1CC2(CCN(c3ccc(C(=O)NS(=O)(=O)c4ccc(NC[C@H]5CC[C@](C)(O)CC5)c([N+](=O)[O-])c4)c(Oc4cnc5[nH]ccc5c4)c3)CC2)C1 (single isomer, unassigned) [Example 3a, 2-((1H-pyrrolo[2,3-b]pyridin-5-yl)oxy)-N-((4-((((1r,4r)-4-hydroxy-4-methylcyclohexyl)methyl)amino)-3-nitrophenyl)sulfonyl)-4-(2-((S or R)-4-isopropyl-2-(2-isopropylphenyl)piperazin-1-yl)-7-azaspiro[3.5]nonan-7-yl)benzamide] | 64.7 | – | – | – | 0.034 | 2.2 | 3.67 | 35.1 | – | –
CC(C)c1ccccc1C1CN(Cc2cnn(C)c2)CCN1C1CC2(CCN(c3ccc(C(=O)NS(=O)(=O)c4ccc(NC[C@H]5CC[C@](C)(O)CC5)c([N+](=O)[O-])c4)c(Oc4cnc5[nH]ccc5c4)c3)CC2)C1 (single isomer, unassigned) [Example 22a, 2-((1H-pyrrolo[2,3-b]pyridin-5-yl)oxy)-N-((4-((((1r,4r)-4-hydroxy-4-methylcyclohexyl)methyl)amino)-3-nitrophenyl)sulfonyl)-4-(2-((R or S)-2-(2-isopropylphenyl)-4-((1-methyl-1H-pyrazol-4-yl)methyl)piperazin-1-yl)-7-azaspiro [3.5]nonan-7-yl)benzamide] | – | – | – | – | 0.0079 | 0.064 | 0.25 | 1.35 | 0.0079 | 0.041
CC(C)c1ccccc1[C@@H]1CN(Cc2cccc3c2OCCO3)CCN1C1CC2(CCN(c3ccc(C(=O)NS(=O)(=O)c4ccc(NC[C@H]5CC[C@](C)(O)CC5)c([N+](=O)[O-])c4)c(Oc4cnc5[nH]ccc5c4)c3)CC2)C1 [Example 79b, 2-((1H-pyrrolo[2,3-b]pyridin-5-yl)oxy)-4-(2-(S-4-((2,3-dihydrobenzo [b][1,4]dioxin-5-yl)methyl)-2-(2-isopropylphenyl)piperazin-1-yl)-7-azaspiro[3.5]nonan-7-yl)-N-((4-((((1r,4r)-4-hydroxy-4-methylcyclohexyl)methyl)amino)-3-nitrophenyl)sulfonyl)benzamide] | – | – | – | – | 0.33 | 19 | 0.16 | 0.68 | – | –
COc1cc(CN2CCN(C3CC4(CCN(c5ccc(C(=O)NS(=O)(=O)c6ccc(NC[C@H]7CC[C@](C)(O)CC7)c([N+](=O)[O-])c6)c(Oc6cnc7[nH]cc(F)c7c6)c5)CC4)C3)[C@H](c3ccccc3C(C)C)C2)cc(C)c1OC [Example 210, 4-(2-((R)-4-(3,4-dimethoxy-5-methylbenzyl)-2-(2-isopropylphenyl)piperazin-1-yl)-7-azaspiro[3.5]nonan-7-yl)-2-((3-fluoro-1H-pyrrolo[2,3-b]pyridin-5-yl)oxy)-N-((4-((((1r,4r)-4-hydroxy-4-methylcyclohexyl)methyl)amino)-3-nitrophenyl)sulfonyl)benzamide] | – | – | – | – | – | – | 0.12 | 0.54 | – | –
COc1cc(CN2CCN(C3CC4(CCN(c5ccc(C(=O)NS(=O)(=O)c6ccc(NC[C@H]7CC[C@](C)(O)CC7)c([N+](=O)[O-])c6)c(Oc6cnc7[nH]ccc7c6)c5)CC4)C3)[C@H](c3ccccc3C(C)C)C2)ccc1Cl [Example 276, 2-((1H-pyrrolo[2,3-b]pyridin-5-yl)oxy)-4-(2-((R)-4-(4-chloro-3-methoxybenzyl)-2-(2-isopropylphenyl)piperazin-1-yl)-7-azaspiro[3.5]nonan-7-yl)-N-((4-((((1r,4r)-4-hydroxy-4-methylcyclohexyl)methyl)amino)-3-nitrophenyl)sulfonyl)benzamide] | – | – | – | – | – | – | 0.15 | 0.71 | – | –
COc1cc(CN2CCN(C3CC4(CCN(c5ccc(C(=O)NS(=O)(=O)c6ccc(NC[C@H]7CC[C@](C)(O)CC7)c([N+](=O)[O-])c6)c(Oc6cnc7[nH]cc(F)c7c6)c5)CC4)C3)[C@H](c3ccccc3C(C)C)C2)ccc1Cl [Example 278, 4-(2-((R)-4-(4-chloro-3-methoxybenzyl)-2-(2-isopropylphenyl)piperazin-1-yl)-7-azaspiro[3.5]nonan-7-yl)-2-((3-fluoro-1H-pyrrolo[2,3-b]pyridin-5-yl)oxy)-N-((4-((((1r,4r)-4-hydroxy-4-methylcyclohexyl)methyl)amino)-3-nitrophenyl)sulfonyl) benzamide] | – | – | – | – | – | – | 0.15 | 0.46 | – | –
